Holding throughout (experiment): inhibition of tumour cell growth, NCI panel, 48 h
The test system of test [1] is NCI-H226 lung.
The test system of test [2] is HOP-62 NSCLC.
Test [3] has as its system HCT-15 colon.
Test [4] relates to UACC-257 melanoma.
Test [5] concerns BT-549 breast.
The subject of test [6] is SF-268 CNS.
In test [7] the test system is SK-MEL-5 melanoma.
Test [8] relates to RXF 393 renal.
Test [9] relates to OVCAR-5 ovarian.
Test [10] concerns SF-539 CNS.

SMILES strings stand for the structures.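 Briefly, cells in 96-well plates were exposed to five compound concentrations for 48 h, and endpoints were estimated by linear interpolation. TGI: concentration producing complete growth inhibition.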

On to `CN(C)Cc1cc(C(=O)/C=C/c2ccc(Cl)cc2)cc(CN(C)C)c1O`, for which the TGI was 49.8 µM in test [1]; 15.8 µM in [2]; 54.4 µM in [3]; 29.2 µM in [4]; 11.3 µM in [5]; 71.1 µM in test [6]. In addition, the TGI was 27.6 µM in test [7], 30.3 µM in test [8], 54.5 µM in test [9] and 38.7 µM in test [10].

`COc1cc(-c2cc(=O)c3c(OC)c(OC)c(OC)c(OC)c3o2)c(OC)c(OC)c1OC`: the TGI in test [1] is > 100 µM; in test [2], > 100 µM; in [3], > 100 µM; in test [4], > 100 µM; in test [5], 56.8 µM; in test [6] it was > 100 µM. The TGI in test [7], in test [8], in test [9] and in test [10] was > 100 µM throughout.

With `CC[N+](CC)(CCNCC(N)=O)CC(N)=O`, the TGI in test [1], in test [2], in test [3], in test [4], in test [5] and in test [6] was > 10 µM throughout. The TGI in test [7], in [8], in test [9] and in test [10] was > 10 µM each time.

Turning to `O=[N+]([O-])c1ccc(/C=N/n2c(CO)nc3ccccc32)o1`, the TGI in test [1] came out at 39.5 µM; in test [2] it was 28.7 µM; in test [3], 15.7 µM; in test [4], 6.25 µM; in test [5], 27.6 µM; in test [6], 22.7 µM. Also, the TGI in [7] stood at 6.78 µM; in test [8], 18.3 µM; in test [9], 24.7 µM; in test [10] it was 55 µM.

Consider `CC(C)(C)OC(=O)NCC(O)CNC(=O)OC(C)(C)C`, for which the TGI in test [1], in [2], in [3], in test [4], in test [5] and in [6] was > 100 µM throughout. Also, the TGI in [7], in [8], in test [9] and in [10] was > 100 µM in each case.

In the case of `Cc1cccc(-c2nc3ccc([N+](=O)[O-])cc3c(=O)o2)c1`, the TGI in test [1], in test [2], in test [3], in test [4], in [5] and in test [6] was > 100 µM in each case. Further, the TGI in [7], in test [8], in test [9] and in test [10] was > 100 µM in each case.

Take `CCN(CC)c1c(N(CC)CC)c(=O)c1=O`: the TGI is 30.9 µM in test [1]; > 77.3 µM in test [2]; 17 µM in [3]; 20.5 µM in test [4]; 35.8 µM in [5]; > 77 µM in test [6]. In addition, the TGI is 35.2 µM in test [7], 25.2 µM in test [8], 37.2 µM in test [9] and 19 µM in test [10].

For the compound `C[N+](C)([O-])CCC=C1c2ccccc2CCc2ccccc21`, the TGI in test [1] was 67.5 µM; in test [2], 34.9 µM; in test [3], 95 µM; in test [4], > 100 µM; in [5], > 100 µM; in [6], 54.6 µM. The TGI in test [7] was 34.3 µM; in [8], 39.8 µM; in test [9], > 100 µM; in test [10], > 100 µM.

Turning to `NC(Cc1cccc([N+](=O)[O-])c1)C(=O)O` (stereo not given), the TGI in test [1], in test [2], in [3], in test [4], in test [5] and in test [6] was > 100 µM in each case. In addition, the TGI in test [7], in [8], in [9] and in test [10] was > 100 µM throughout.

For the compound `CCOC(=O)C1=CC(C)(C(=O)OCC)Nc2c(nc(OC)n(C)c2=O)N1` (stereo not given), the TGI in test [1], in test [2], in test [3], in [4], in test [5] and in test [6] was > 10 µM in each case. Further, the TGI in test [7], in [8], in test [9] and in [10] was > 10 µM each time.

`Cc1cc2nc3c(C#N)c(-c4ccccc4)cc(Nc4ccc(Cl)cc4)n3c2cc1C`: the TGI in [1], in [2], in test [3], in [4], in [5] and in [6] was > 100 µM each time. The TGI in test [7], in [8], in test [9] and in [10] was > 100 µM each time.

As to `S=C(c1c[nH]c2ccccc12)N1CCOCC1`, the TGI in test [1], in test [2], in [3], in test [4], in [5] and in test [6] was > 100 µM each time. The TGI in test [7], in test [8], in [9] and in test [10] was > 100 µM throughout.

For `CC(C)(C)c1cc(C(P(=O)(c2ccccc2)c2ccccc2)P(=O)(c2ccccc2)c2ccccc2)cc(C(C)(C)C)c1O`, the TGI in [1] was 9.13 µM; in test [2], 5.13 µM; in test [3], 6.96 µM; in test [4], 4.18 µM; in [5], > 8.23 µM; in test [6], > 9.47 µM. Also, the TGI in test [7] was 2.94 µM; in test [8], 7.09 µM; in [9], > 6.72 µM; in test [10], 3.88 µM.

(Values after PubChem BioAssay (NCI).)
